Results as given in ChEMBL document CHEMBL4219126, “Synthesis and biological evaluation of benzocyclobutane-C-glycosides as potent and orally active SGLT1/SGLT2 dual inhibitors” (Bioorg Med Chem Lett, 2018).
The source made the active and inactive calls. The rule behind the calls is not given here.

Key:
[1] = molecular target: T1, Sodium/glucose cotransporter 2 (Homo sapiens) (UniProt P31639); experiment: Inhibition of human kidney SGLT2 expressed in CHOK1 cells assessed as decrease in [14C]-AMG uptake at 30 nM preincubated for 10 mins followed by [14C]-AMG addition and measured after 2 hrs by TopCount method relative to control; assay type: cell-based
T1 sequence (whole entry): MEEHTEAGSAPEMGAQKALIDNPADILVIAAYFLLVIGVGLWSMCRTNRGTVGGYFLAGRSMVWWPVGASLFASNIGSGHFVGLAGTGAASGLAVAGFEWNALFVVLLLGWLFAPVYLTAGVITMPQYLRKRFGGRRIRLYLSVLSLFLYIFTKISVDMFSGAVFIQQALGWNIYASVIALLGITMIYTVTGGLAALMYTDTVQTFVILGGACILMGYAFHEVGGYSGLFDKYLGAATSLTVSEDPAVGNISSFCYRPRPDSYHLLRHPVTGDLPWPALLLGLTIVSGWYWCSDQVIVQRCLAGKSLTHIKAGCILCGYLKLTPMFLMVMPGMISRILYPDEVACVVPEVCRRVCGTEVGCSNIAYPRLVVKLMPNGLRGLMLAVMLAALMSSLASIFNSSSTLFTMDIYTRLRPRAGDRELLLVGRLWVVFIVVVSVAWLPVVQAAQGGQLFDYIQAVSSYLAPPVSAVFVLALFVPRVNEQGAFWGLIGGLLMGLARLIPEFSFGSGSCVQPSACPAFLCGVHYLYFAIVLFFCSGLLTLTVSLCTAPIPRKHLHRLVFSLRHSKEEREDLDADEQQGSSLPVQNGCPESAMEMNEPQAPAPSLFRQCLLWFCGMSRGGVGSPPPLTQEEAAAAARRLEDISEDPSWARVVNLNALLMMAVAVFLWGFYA

[2] = molecular target: T2, Sodium/glucose cotransporter 1 (Homo sapiens) (UniProt P13866); experiment: Inhibition of human small intestinal SGLT1 expressed in CHOK1 cells assessed as decrease in [14C]-AMG uptake at 300 nM preincubated for 10 mins followed by [14C]-AMG addition and measured after 2 hrs by TopCount method relative to control; assay type: cell-based
T2 sequence (whole entry): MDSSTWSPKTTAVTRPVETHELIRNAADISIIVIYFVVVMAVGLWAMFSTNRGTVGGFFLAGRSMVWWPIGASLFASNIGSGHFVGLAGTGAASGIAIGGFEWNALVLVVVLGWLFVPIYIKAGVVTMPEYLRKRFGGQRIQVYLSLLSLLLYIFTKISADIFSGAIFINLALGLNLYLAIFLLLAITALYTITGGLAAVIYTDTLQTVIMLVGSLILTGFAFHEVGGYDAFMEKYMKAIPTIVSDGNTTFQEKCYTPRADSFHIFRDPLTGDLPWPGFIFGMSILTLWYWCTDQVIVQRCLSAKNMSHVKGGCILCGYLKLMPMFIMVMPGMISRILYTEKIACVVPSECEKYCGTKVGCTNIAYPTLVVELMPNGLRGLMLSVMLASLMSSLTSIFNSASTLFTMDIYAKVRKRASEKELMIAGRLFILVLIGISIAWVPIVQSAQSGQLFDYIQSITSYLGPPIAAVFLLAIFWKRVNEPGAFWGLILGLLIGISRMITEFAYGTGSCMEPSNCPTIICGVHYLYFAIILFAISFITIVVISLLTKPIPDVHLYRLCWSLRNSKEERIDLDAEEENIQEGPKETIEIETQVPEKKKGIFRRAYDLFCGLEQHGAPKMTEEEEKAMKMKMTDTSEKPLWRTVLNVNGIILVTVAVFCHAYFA

[3] = Cmax in rat at 2 mg/kg, iv; assay type: ADME, organism-based; design: dose 2 mg/kg, route intravenous; settings: in vivo
[4] = AUC (infinity) in rat at 10 mg/kg administered via oral gavage; assay type: ADME, organism-based; design: dose 10 mg/kg, route oral, time infinity; settings: in vivo
[5] = Volume of distribution at steady state in mouse at 5 mg/kg, iv; assay type: ADME, organism-based; settings: in vivo, read-out: Vdss
[6] = test system: Rattus norvegicus; experiment: Antidiabetic activity in Sprague-Dawley rat assessed as decrease in plasma glucose AUC (0 to 120 mins) administered 1 hr prior to U13C6-glucose challenge by OGTT; assay type: functional, organism-based
[7] = Oral bioavailability in rat at 10 mg/kg; assay type: ADME, organism-based; settings: in vivo
[8] = Terminal half life in mouse at 5 mg/kg, iv; assay type: ADME, organism-based; settings: in vivo, read-out: beta t1/2 (converted)
[9] = AUC (infinity) in mouse at 20 mg/kg administered via oral gavage; assay type: ADME, organism-based; design: dose 20 mg/kg, route oral, time infinity; settings: in vivo
[10] = Volume of distribution at steady state in rat at 2 mg/kg, iv; assay type: ADME, organism-based; settings: in vivo, read-out: Vdss
[11] = AUC (infinity) in mouse at 5 mg/kg, iv; assay type: ADME, organism-based; design: dose 5 mg/kg, time infinity, route intravenous; settings: in vivo
[12] = Oral bioavailability in mouse at 20 mg/kg; assay type: ADME, organism-based; settings: in vivo
[13] = Systemic clearance in mouse at 5 mg/kg, iv; assay type: ADME, organism-based; settings: in vivo
[14] = Cmax in mouse at 20 mg/kg administered via oral gavage; assay type: ADME, organism-based; design: dose 20 mg/kg, route oral; settings: in vivo
[15] = Terminal half life in rat at 2 mg/kg, iv; assay type: ADME, organism-based; settings: in vivo, read-out: beta t1/2 (converted)
[16] = Terminal half life in rat at 10 mg/kg administered via oral gavage; assay type: ADME, organism-based; settings: in vivo, read-out: beta t1/2 (converted)
[17] = AUC (infinity) in rat at 2 mg/kg, iv; assay type: ADME, organism-based; design: dose 2 mg/kg, time infinity, route intravenous; settings: in vivo
[18] = Cmax in mouse at 5 mg/kg, iv; assay type: ADME, organism-based; design: dose 5 mg/kg, route intravenous; settings: in vivo
[19] = Terminal half life in mouse at 20 mg/kg administered via oral gavage; assay type: ADME, organism-based; settings: in vivo, read-out: beta t1/2 (converted)
[20] = Systemic clearance in rat at 2 mg/kg, iv; assay type: ADME, organism-based; settings: in vivo
[21] = test system: Rattus norvegicus; experiment: Antidiabetic activity in Sprague-Dawley rat assessed as increase in urinary glucose excrection administered 1 hr prior to U13C6-glucose challenge measured up to 4 hrs by OGTT; assay type: functional, organism-based
[22] = Cmax in rat at 10 mg/kg administered via oral gavage; assay type: ADME, organism-based; design: dose 10 mg/kg, route oral; settings: in vivo
[23] = Systemic clearance in dog at 2 mg/kg, iv; assay type: ADME, organism-based, Canis lupus familiaris; settings: in vivo
[24] = Cmax in monkey at 2 mg/kg, iv; assay type: ADME, organism-based, Macaca mulatta; design: dose 2 mg/kg, route intravenous; settings: rhesus monkey, in vivo
[25] = AUC (infinity) in dog at 10 mg/kg administered via oral gavage; assay type: ADME, organism-based, Canis lupus familiaris; design: dose 10 mg/kg, route oral, time infinity; settings: in vivo
[26] = Systemic clearance in monkey at 2 mg/kg, iv; assay type: ADME, organism-based, Macaca mulatta; settings: rhesus monkey, in vivo
[27] = Cmax in monkey at 10 mg/kg administered via oral gavage; assay type: ADME, organism-based, Macaca mulatta; design: dose 10 mg/kg, route oral; settings: rhesus monkey, in vivo
[28] = Oral bioavailability in monkey at 10 mg/kg; assay type: ADME, organism-based, Macaca mulatta; settings: rhesus monkey, in vivo
[29] = Cmax in dog at 10 mg/kg administered via oral gavage; assay type: ADME, organism-based, Canis lupus familiaris; design: dose 10 mg/kg, route oral; settings: in vivo
[30] = Volume of distribution at steady state in monkey at 2 mg/kg, iv; assay type: ADME, organism-based, Macaca mulatta; settings: rhesus monkey, in vivo, read-out: Vdss
[31] = Cmax in dog at 2 mg/kg, iv; assay type: ADME, organism-based, Canis lupus familiaris; design: dose 2 mg/kg, route intravenous; settings: in vivo
[32] = Terminal half life in dog at 2 mg/kg, iv; assay type: ADME, organism-based, Canis lupus familiaris; settings: in vivo, read-out: beta t1/2 (converted)
[33] = Terminal half life in monkey at 10 mg/kg administered via oral gavage; assay type: ADME, organism-based, Macaca mulatta; settings: rhesus monkey, in vivo, read-out: beta t1/2 (converted)
[34] = Volume of distribution at steady state in dog at 2 mg/kg, iv; assay type: ADME, organism-based, Canis lupus familiaris; settings: in vivo, read-out: Vdss
[35] = AUC (infinity) in monkey at 10 mg/kg administered via oral gavage; assay type: ADME, organism-based, Macaca mulatta; design: dose 10 mg/kg, time infinity, route oral; settings: rhesus monkey, in vivo
[36] = Terminal half life in monkey at 2 mg/kg, iv; assay type: ADME, organism-based, Macaca mulatta; settings: rhesus monkey, in vivo, read-out: beta t1/2 (converted)
[37] = Terminal half life in dog at 10 mg/kg administered via oral gavage; assay type: ADME, organism-based, Canis lupus familiaris; settings: in vivo, read-out: beta t1/2 (converted)
[38] = test system: Rattus norvegicus; experiment: Antidiabetic activity in Sprague-Dawley rat assessed as decrease in postprandial blood glucose level administered 1 hr prior to glucose challenge measured up to 120 mins by OGTT; assay type: functional, organism-based
[39] = Oral bioavailability in dog at 10 mg/kg; assay type: ADME, organism-based, Canis lupus familiaris; settings: in vivo
[40] = AUC (infinity) in monkey at 2 mg/kg, iv; assay type: ADME, organism-based, Macaca mulatta; design: dose 2 mg/kg, route intravenous, time infinity; settings: rhesus monkey, in vivo
[41] = test system: Rattus norvegicus; experiment: Antihyperglycemic activity in diabetic ZDF rat assessed as decrease in fed blood glucose levels at 10 mg/kg measured up to 24 hrs; assay type: functional, organism-based
[42] = AUC (infinity) in dog at 2 mg/kg, iv; assay type: ADME, organism-based, Canis lupus familiaris; design: dose 2 mg/kg, time infinity, route intravenous; settings: in vivo

Compound	inhibition [1] [%]	inhibition [2] [%]	Cmax [3] [ng/mL]	AUC(0-inf) [4] [ng·h/mL]	Vd [5] [L/kg]	bioavailability [7] [%]	half-life [8] [h]	AUC(0-inf) [9] [ng·h/mL]	Vd [10] [L/kg]	AUC(0-inf) [11] [ng·h/mL]	bioavailability [12] [%]	clearance [13] [mL/min/kg]	Cmax [14] [ng/mL]	half-life [15] [h]	half-life [16] [h]	AUC(0-inf) [17] [ng·h/mL]	Cmax [18] [ng/mL]	half-life [19] [h]	clearance [20] [mL/min/kg]	Cmax [22] [ng/mL]	further results
OC[C@H]1O[C@@H](c2cccc(Cc3ccc4c(c3)CC4)c2)[C@H](O)[C@@H](O)[C@@H]1O	23	5	–	–	–	–	–	–	–	–	–	–	–	–	–	–	–	–	–	–	–
N#Cc1ccc([C@@H]2O[C@H](CO)[C@@H](O)[C@H](O)[C@H]2O)cc1Cc1ccc2c(c1)CC2	43	0	–	–	–	–	–	–	–	–	–	–	–	–	–	–	–	–	–	–	–
Cc1cc(O)c([C@@H]2O[C@H](CO)[C@@H](O)[C@H](O)[C@H]2O)cc1Cc1ccc2c(c1)CC2	–	–	2110	1790	1.06	49	1.25	11500	2.18	4560	62.8	18.3	4760	1.27	2.22	697	8200	2.68	47.8	717	Activity [6]: Dose-dependent effect; Activity [21]: Dose-dependent effect
OC[C@H]1O[C@@H](c2ccc(Cl)c(Cc3ccc4c(c3)CC4)c2)[C@H](O)[C@@H](O)[C@@H]1O	–	–	1110	2650	2.19	78	2.42	25500	4.01	6390	99	13	5680	2.17	2.48	697	5870	3.29	48.3	634	clearance [23]: 0.68 mL/min/kg; Cmax [24]: 9110 ng/mL; AUC(0-inf) [25]: 332000 ng·h/mL; clearance [26]: 3.74 mL/min/kg; Cmax [27]: 7180 ng/mL; bioavailability [28]: 88%; Cmax [29]: 20100 ng/mL; Vd [30]: 0.91 L/kg; Cmax [31]: 9600 ng/mL; half-life [32]: 7.93 h; half-life [33]: 4.45 h; Vd [34]: 0.4 L/kg; AUC(0-inf) [35]: 40500 ng·h/mL; half-life [36]: 4.71 h; half-life [37]: 12.8 h; Activity [38]: Active; bioavailability [39]: 107%; AUC(0-inf) [40]: 9210 ng·h/mL; Activity [41]: Active; AUC(0-inf) [42]: 50800 ng·h/mL
COc1cc(C2CC2)c(Cc2ccc3c(c2)CC3)cc1[C@@H]1O[C@H](CO)[C@@H](O)[C@H](O)[C@H]1O	31	67	–	–	–	–	–	–	–	–	–	–	–	–	–	–	–	–	–	–	–
CN(C)c1ccc([C@@H]2O[C@H](CO)[C@@H](O)[C@H](O)[C@H]2O)cc1Cc1ccc2c(c1)CC2	35	67	–	–	–	–	–	–	–	–	–	–	–	–	–	–	–	–	–	–	–
